Experimental data: paper PMC2753520 (Journal of medicinal chemistry, 2009)

Test: PAMPA passive permeability
Type: in vitro ADME
Conditions: pH 7.4

- Permeability (PAMPA, Pe): high permeability
Compound: CCCCCCOc1ccc(C(=O)CCN(C)C)c2ccccc12 [13{1}]
